The text below walks through data of ChEMBL document CHEMBL1806440, “N-β-glycosyl sulfamides are selective inhibitors of the cancer associated carbonic anhydrase isoforms IX and XII” (Bioorg Med Chem Lett, 2011).

SMILES strings stand for the structures. pKi: −log10 of the molar value.

The assay deals with Carbonic anhydrase 9 (Homo sapiens, UniProt Q16790).
One may read the pKi as the negative decadic logarithm of the Ki, by convention in mol/L. A lower pKi goes with a large Ki. `CC(=O)OC[C@H]1O[C@@H](NS(N)(=O)=O)[C@H](OC(C)=O)[C@@H](OC(C)=O)[C@H]1OC(C)=O`: the pKi is 8.14.
The value for `CC(=O)OC[C@H]1O[C@@H](NS(N)(=O)=O)C[C@@H](OC(C)=O)[C@@H]1OC(C)=O` was 7.89; that for `CC(=O)OC[C@H]1O[C@@H](NS(N)(=O)=O)[C@H](OC(C)=O)[C@@H](OC(C)=O)[C@@H]1OC(C)=O` was 8.11.
For `C[C@H]1O[C@@H](NS(N)(=O)=O)[C@@H](O)[C@@H](O)[C@@H]1O` the value was 5.50; for `CC(=O)OC[C@H]1O[C@@H](NS(N)(=O)=O)[C@@H](OC(C)=O)[C@@H](OC(C)=O)[C@@H]1OC(C)=O`, 8.30.
For `CC(=O)OC[C@H]1O[C@@H](NS(N)(=O)=O)C[C@@H](OC(C)=O)[C@H]1OC(C)=O` the value was 7.80.
